Values of other authors in patent US20260199259A1, “CONTROLLED LIPID SELF-ASSEMBLY FOR SCALABLE MANUFACTURING OF NEXTGENERATION IMMUNE STIMULATING COMPLEXES” (MASSACHUSETTS INSTITUTE OF TECHNOLOGY, priority 2022, published 2026).

Experiments:
chick embryo eggs = conditions: measured by lethal dose in chick embryo eggs

micelle size (aqueous solutions) | solubility (in PBS) | Substance | factor of toxicity reduction relative to LPS (chick embryo eggs)
~ 7 nm | up to 30 mg/mL | QS-21 | 
 |  | 4′-monophosporyl lipid A [MPLA] | more than 1000
